Experimental data from PMC8603350, “A Remote Secondary Binding Pocket Promotes Heteromultivalent Targeting of DC-SIGN” (Journal of the American Chemical Society, 2021).
Numbering of substitutions follows the chain as printed. “Also recorded” adds a separate entry of the source.

What was measured:
DC-SIGN CRD M270F = biological target: T1, DC-SIGN CRD M270F (Homo sapiens, UniProt Q9NNX6, M270F); assay: 15N HSQC NMR binding experiments with M270F mutant; conditions: absence of Ca2+
T1 construct: His-tagged DC-SIGN CRD wild-type as well as the M270F mutant; His-tag; made in house; host or cells: E. coli BL21(DE3), pET28a; gene from GenScript
T1 sequence (Q9NNX6 263-378 M270F limits assumed): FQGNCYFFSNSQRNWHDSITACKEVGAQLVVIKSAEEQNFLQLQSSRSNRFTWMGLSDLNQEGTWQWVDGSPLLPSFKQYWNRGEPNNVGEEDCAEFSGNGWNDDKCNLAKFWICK

DC-SIGN CRD = biological target: T2, DC-SIGN CRD (Homo sapiens, UniProt Q9NNX6); assay: 15N HSQC NMR titration; assay type: binding; conditions: 10 mM CaCl2, MES pH 6.0
T2 construct: His-tagged DC-SIGN CRD wild-type as well as the M270F mutant; His-tag; made in house; host or cells: E. coli BL21(DE3), pET28a; gene from GenScript
T2 sequence (Q9NNX6 263-378 limits assumed): T1 sequence (Q9NNX6 263-378 M270F limits assumed) with F8M

DC-SIGN ECD [1] = biological target: T3, DC-SIGN ECD (Homo sapiens, UniProt Q9NNX6); assay: 19F NMR reporter displacement assay transferred to DC-SIGN ECD; assay type: binding; conditions: 0.1 mM reporter 49; for 48 estimated, receptor precipitation above 1 mM
T3 construct: DC-SIGN extracellular domain (ECD); made in house; host or cells: E. coli BL21(DE3), pET30b; gene from GenScript
T3 sequence (Q9NNX6 59-404 limits assumed): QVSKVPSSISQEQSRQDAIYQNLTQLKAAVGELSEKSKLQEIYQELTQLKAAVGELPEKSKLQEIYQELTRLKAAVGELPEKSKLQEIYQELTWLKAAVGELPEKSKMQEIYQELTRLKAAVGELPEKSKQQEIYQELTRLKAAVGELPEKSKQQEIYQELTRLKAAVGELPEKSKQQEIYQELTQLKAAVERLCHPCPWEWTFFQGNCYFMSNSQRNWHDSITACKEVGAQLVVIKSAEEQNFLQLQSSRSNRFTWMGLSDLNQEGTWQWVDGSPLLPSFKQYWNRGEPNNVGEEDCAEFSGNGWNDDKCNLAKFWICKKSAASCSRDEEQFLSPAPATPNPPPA

DC-SIGN+ Raji cells = assay: Liposome binding assay, flow cytometry; assay type: cell-based
Method: If not stated otherwise, all media and supplements for cell culture experiments were purchased from Thermo Fisher Scientific. Raji, THP-1 and U937 cell lines (ATCC) were grown in complete growth medium containing RPMI1640 medium, 10% FCS, 100 U mL-1 Penicillin-Streptomycin and GlutaMax at 37°C and 5% CO2. Cells were monitored with a light microscope (IT40 5PH, VWR) and subcultured every 2 -3 days to maintain cell densities ranging from of 0.5 - 3 x 10^6 cells per mL.
CLR-expressing cell lines were generated as described before.4,27 Briefly, DC-SIGN, Langerin, murine Langerin and murine Dectin-1 cDNAs (Sinobiologicals) were cloned into a lentiviral BIC-PGK-Zeo-T2a-mAmetrine:EF1A construct by Gibson assembly (NEB) according to the manufacturer’s protocol. HEK293 cells were transfected with the lentiviral vector together with third-generation packaging vectors and viral particles were then used for transduction of Raji cells. In analogy, DC-SIGN and Langerin-expressing THP-1 and U937 cell lines were generated by lentiviral transduction.
Liposome binding assay – flow cytometry
Liposome binding to CLR-expressing cells was assayed as previously described.27 Briefly, 0.05 x 10^6 cells were plated in transparent conical-bottom 96 well microtiter plates (Nunc) in a volume of 100 µL medium. Plates were centrifuged at 500 x g for 3 minutes, supernatant was aspirated, and cells were resuspended in 100 µL medium, containing 16 µM liposomes. In control experiments, cells were incubated with medium containing 10 mM EDTA or 50 µg mL-1 mannan for 15 min at 4 °C, prior to liposome application. After 1 h incubation at 4 °C in the dark, cells were centrifuged at 500 x g for 3 min and the supernatant was discarded. Cells wer e resuspended in 200 µL ice-cold medium and analyzed by detecting the co-formulated Alexa 647 dye via flow cytometry with a 654 nm laser and a 670/14 nm filter (Attune Nxt, life technologies).
Flow cytometry data was processed using FlowJo (BD Bioscience). Mean fluorescence intensity (MFI) was further analyzed and plotted using GraphPad Prism (GraphPad […]
To monitor allosteric activation of DC-SIGN by glycomimetic 48, the described protocol was adjusted as follows. DC-SIGN+ Raji cells were plated in transparent conical-bottom 96 well microtiter plates (Nunc) in a volume of 100 µL medium. Plates were centrifuged at 500 x g for 3 minutes, supernatant was aspirated, and cell were resuspended in 25 µL medium supplemented with varying concentrations of monovalent carbohydrates or 0.5 mM 48. Homomultivalent liposomes carrying either natural carbohydrates or 48 were added at a final concentration of 16 µM. Liposome binding was subsequently quantified by measuring Alexa 647 fluorescence in flow cytometry experiments. Statistical significance by means of a student’s t-test was assessed based on averaged normalized MFIs from four biological replicates each conducted as technical duplicates. A p-value < 0.05 was set as significance cut-off.

DC-SIGN ECD [2] = biological target: T3, DC-SIGN ECD; assay: Direct 19F R2-filtered NMR binding experiments (CF3 resonance)
Method: KI values were determined as previously described for Langerin and the DC-SIGN CRD.6 Briefly, competitive binding experiments were conducted with 49 at a concentration of 0.1 mM and varying competitor concentrations [I]T. KI and [P]T values were derived from Equation 8 in a two-parameter fit.
R2,obs = R2,f + (R2,b − R2,f)pb […]
θ = cos−1 ( ) ,a = KD + KI + [L]T + [I]T − [P]T
b = ([I]T − [P]T)KD + ([L]T − [P]T)KD + KIKD, c = −KIKD[P]T
KD determination from 19F NMR CSPs
For KD determination from 19F NMR CSPs, samples and measurements were set up as described for 19F R2-filtered NMR but at a single relaxation time T = 0 s. CSP 19F, T were calculated from the chemical shift of the 19F resonance of 48 in the presence of protein δT at increasing ligand concentrations and the chemical shift in absence of protein δf at a concentration of 1 mM via Equation 4.
The KD value was calculated from CSP19F, T values in a two -parameter fit using Equation 10, using a fixed protein concentration [P] T and a CSP19F of 0 ppm as a lower bound. CSP19F,b corresponds to the top asymptote and was kept variable. As in Equation 9, pb represents the fraction of bound protein.

DC-SIGN ECD [3] = biological target: T3, DC-SIGN ECD; assay: KD determination from 19F NMR CSPs; assay type: binding; conditions: direct observation of CF3 chemical shift; read-out: KD (19F CSP)

NC[C@H]1O[C@H](Oc2ccc(-c3ccc(C(=O)O)cc3)cc2C(F)(F)F)[C@@H](O)[C@@H](O)[C@@H]1O [compound 48]
binding to M270F mutant (DC-SIGN CRD M270F): abrogation of 48-binding | Kd (DC-SIGN CRD): 460 ± 160 µM | Ki (DC-SIGN ECD [1]): 1150 ± 10 µM | effect of soluble compound on binding of Fuc-Lip liposomes (DC-SIGN+ Raji cells; 0.5 mM soluble 48, liposomes with 2.5 mol % Fuc-Lip, p < 0.05, n = 4): significantly enhances; also recorded: significantly increased | binding of homomultivalent liposomes (DC-SIGN+ Raji cells; 42-Lip up to 1.26%, 48 up to 1.66% total lipid concentration): does not show any binding | molar glycomimetic/Man ratio around which the cooperative binding effect saturates (DC-SIGN+ Raji cells; heteromultivalent liposomes with Man-Lip): ~0.5 | Kd (DC-SIGN ECD [2]; direct observation of CF3 relaxation rate R2,obs): 480 ± 100 µM | apparent KD values lower than the determined KI (DC-SIGN ECD [2]; direct-binding NMR KD vs RDA KI): about 3 fold | Kd (DC-SIGN ECD [3]): 370 ± 60 µM
